Converted amounts (≈) assume the structure as drawn.

What all share (assay): Minimum Inhibitory Concentration (MIC), agar plate incubation
Common to all, as to assay type: cell-based

For assay [1], the system named is Pseudomonas aeruginosa SR24. The following applies: Pseudomonas aeruginosa SR24 (no enzyme, Ceftazidime sensitive strain); 1000 cfu/spot, sensitive disc medium; read-out: Minimum Inhibitory Concentration (MIC). The protocol:
(§1) Measurement of Minimum Inhibitory Concentration (MIC, microg/ml) was conducted according to the standard method of the Japan Society for Chemotherapy, and the amount of bacteria for inoculation was 1000 cfu/spot, and sensitive disc medium was used as the test medium, and conducted using agar plate incubation.
(§2) In the tables, a unit of the values of inhibitory activity is microg/ml (μg/ml).
(§3) Bacterial strains described in the above tables and enzyme (beta-lactamase) produced thereby are explained in Table 7.

Assay [2] relates to Pseudomonas aeruginosa SR27060. The following applies: Pseudomonas aeruginosa SR27060 (IMP-1, MBL producer strain, carbapenem resistant); 1000 cfu/spot, sensitive disc medium; read-out: Minimum Inhibitory Concentration (MIC). The method, then:
as §1, §2, §3

The test system of assay [3] is Stenotrophomonas maltophilia SR21970. The following applies: Stenotrophomonas maltophilia SR21970 (L-1, MBL producer strain, carbapenem resistant); 1000 cfu/spot, sensitive disc medium; read-out: Minimum Inhibitory Concentration (MIC). The method, then:
as §1, §2, §3

Assay [4] relates to Acinetobacter baumannii SR24396. The following applies: Acinetobacter baumannii SR24396 (no enzyme); 1000 cfu/spot, sensitive disc medium; read-out: Minimum Inhibitory Concentration (MIC). The protocol: as §1, §2, §3
For assay [5], the system named is Klebsiella pneumoniae ATCC 700603. The note with it: ATCC700603; Klebsiella pneumoniae ATCC 700603 (SHV-18, ESBL producer strain); 1000 cfu/spot, sensitive disc medium; read-out: Minimum Inhibitory Concentration (MIC). The method, then:
as §1, §2, §3

In the case of `CC(C)(O/N=C(\C(=O)N[C@@H]1C(=O)N2C(C(=O)O)=C(C[N+]3(CCNC(=O)c4ccc(O)c(O)c4Cl)CC=CC3)CS[C@H]12)c1csc(N)n1)C(=O)[O-]` [II-13], the MIC in assay [1] was found to be 0.063 µg/mL (≈ 0.084 µM); in assay [2] it was 0.5 µg/mL (≈ 0.666 µM); in assay [3] it was 1 µg/mL (≈ 1.33 µM); in assay [4], 0.25 µg/mL (≈ 0.333 µM); in assay [5] it was 0.25 µg/mL (≈ 0.333 µM).

For the compound `COc1c(O)ccc(C(=O)NCC[N+]2(CC3=C(C(=O)[O-])N4C(=O)C(NC(=O)/C(=N\OC(C)(C)C(=O)O)c5csc(N)n5)C4SC3)CCCC2)c1Cl` (stereo not shown) [Comparative Compound 1, reference compound], the MIC in assay [1] came out at 4 µg/mL (≈ 5.22 µM); in assay [2] it was 32 µg/mL (≈ 41.8 µM); in assay [3], 16 µg/mL (≈ 20.9 µM); in assay [4], 64 µg/mL (≈ 83.5 µM); in assay [5], 16 µg/mL (≈ 20.9 µM).

(Values after patent US9238657B2, “Cephalosporin having catechol group” (SHIONOGI & CO., LTD., priority 2008, dated 2016).)
